Results published in patent US4123518A, “Insecticidal phosphate ester-based solid composition with depot gas action” (priority 1974, dated 1978).

Experiments:
[1] = test system: male rats; experiment: Acute inhalation toxicity, male rats (4 hours' exposure); assay type: in vivo
[2] = Acute oral toxicity, male rats; settings: rat, in vivo
[3] = test system: flies of the species Musca domestica; experiment: Percentage of flies lying on their backs after one hour, shaped pieces in a 40 m^3 room (Example 9); assay type: in vivo; settings: shaped piece of Example 5 (Thio-DDVP) or 5a (DDVP)
Protocol: One shaped piece produced according to Example 5 and one shaped piece produced according to Example 5a were each pushed into a net-like quiver and suspended from the ceiling in the center of identical rooms of 40 m^3 cubic capacity. Immediately thereafter (0), and after 4, 8 and 12 weeks, 200 flies of the species Musca domestica were in each case exposed in the rooms. […] In each case, the percentage of animals which had fallen on their backs was determined 1 hour after exposing the flies.

[4] = test system: Musca domestica; experiment: Aerosol test (knock-down of 50% of the animals, LT50); assay type: in vivo; settings: comparison experiment, Example 1
Protocol: The following examples explain the invention in more detail, with "parts" denoting parts by weight.
Test animals: Musca domestica
To produce a suitable preparation of active compound, the active compound was mixed, at a range of concentrations, with the stated solvent.
A wire cage which contained about 25 test animals was suspended in the centre of a gas-tight glass chamber of size 1 m^3. After the chamber had been closed again, 2 ml of the preparation of active compound were atomised in the chamber. The condition of the test animals was constantly checked from outside, through the glass walls, and the time required for a knock-down effect on 50% of the animals was determined.
The active compounds, amounts used and time after which 50% of the animals were lying on their backs (LT50) can be seen from the table which follows: […]

[5] = test system: warm-blooded animals; experiment: Toxicity to warm-blooded animals compared to DDVP; assay type: in vivo
[6] = age of the shaped pieces 0 weeks
[7] = age of the shaped pieces 4 weeks
[8] = age of the shaped pieces 8 weeks
[9] = age of the shaped pieces 12 weeks

| SMILES | LC50 male rats, acute inhalation toxicity [1] [mg/m^3] | LD50 [2] [mg/kg] | percentage of animals lying on their backs after one hour [3, 6] [percentage] | percentage of animals lying on their backs after one hour [3, 7] [percentage] | percentage of animals lying on their backs after one hour [3, 8] [percentage] | percentage of animals lying on their backs after one hour [3, 9] [percentage] | tolerance of the maximum possible concentration, acute inhalation toxicity ([1]; 477 mg/m^3, maximum possible in the experiment) | insecticidal action compared to DDVP [4] | toxicity to warm-blooded animals compared to DDVP [5] |
| --- | --- | --- | --- | --- | --- | --- | --- | --- | --- |
| COP(=O)(OC)OC=C(Cl)Cl [DDVP, dimethyl-2,2-dichlorovinyl phosphate, reference compound] | 340 | 62 | 80 | 70 | 60 | 20 |  |  |  |
| COP(=S)(OC)OC=C(Cl)Cl [Thio-DDVP, dimethyl-2,2-dichlorovinyl thiophosphate] | > 477 | 773 | 100 | 95 | 90 | 50 | tolerated without symptoms | poorer insecticidal action | lower toxicity to warm-blooded animals |
